Assay results published in patent US5635594A, “Gallinacins - antibiotic peptides” (University of California, Los Angeles, priority 1994, dated 1997).
Where no end group is shown, it is not given here.

tested on: Candida albicans strain 820; experiment: ultrasensitive radial diffusion assay in agarose gels, Candida; assay type: cell-based; conditions: underlay agar pH 7.4, overnight incubation, FIG. 5c
Description: Aliquots of these column fractions were dried by vacuum centrifugation, resuspended in a small volume (approximately 17 μl) of 0.01% HOAc and 5 μl samples were tested for antimicrobial activity against Escherichia coli ML-35, Listeria monocytogenes strain EGD and Candida albicans strain 820, by the ultrasensitive radial diffusion technique described by Lehrer, R. I. et al. J Immunol Meth (1991) 137:167-173. […] A 1 mm diameter clear zone around the sample well after overnight incubation corresponded to 10 units of microbicidal activity.
The radial diffusion assay in agarose gels described in Example 1 was also used to test the activity of the purified gallinacins. FIGS. 5a, 5b and 5c show the results against three test organisms in units described as above. Rabbit defensin (NP-1) and human defensin (HNP-1) were used as controls.

Row | Substance | antifungal activity against Candida albicans
1 | Gal2: 36-residue antimicrobial peptide isolated from chicken neutrophils, six cysteines in three intramolecular disulfide bonds (LFCKGGSCHFGGCPSHLIKVGSCFGFRSCCKWPWNA; not fully specified (residues 3, 8, 13, 23, 29, 30, bridges); also: native peptide: three intramolecular disulfides, pairing not given here) | relatively poor activity
2 | Gal1α: antimicrobial peptide isolated from chicken neutrophils; differs from Gal1 only in positions 10, 20 and 32 | effective
3 | Gal1: 39-residue antimicrobial peptide isolated from chicken neutrophils, six cysteines in three intramolecular disulfide bonds | effective
